# Measured values as given in patent US20140141503A1, “CELL CULTURE SUBSTRATE HAVING UNIFORM SURFACE COATING” (Corning Incorporated, priority 2012, published 2014).
# Assay: Compound extraction (loss) from PBS buffer by PDMS coating, UV-VIS at 260 nm
# Assay type: physicochemical
# Conditions: 200 μL of 200 μM Nefazodone-PBS, 24 hours, less than 0.8 mg of PDMS in 200 μL PBS (volume ratio PDMS to buffer less than 1/250)
# Experimental: Nefazodone is a small hydrophobic compound that can be readily extracted from aqueous buffer by PDMS following a partition function rule, which means the loss of Nefazodone […] with the amount of PDMS present in a given volume of buffer. In order to determine the safe quantity of PDMS for use with 200 μL of PBS buffer, 200 μL of a 200 μM Nefazodone-PBS solution was incubated in wells (formed generally as described above in EXAMPLE 4) containing varying PDMS coating amounts from 0.005 mg to 4 mg per well for 24 hours. After 24 hours the Nefazodone that remained in the PBS buffer was measured by UV-VIS adsorption at 260 nm. The results shown in FIG. 11 indicate that the loss of Nefazodone is negligible in the presence of less than 0.8 mg of PDMS in 200 μL of PBS buffer (meaning volume ratio of PDMS to buffer is less than 1/250).
compound,measurement,value
CCc1nn(CCCN2CCN(c3cccc(Cl)c3)CC2)c(=O)n1CCOc1ccccc1 [Nefazodone],loss of Nefazodone from PBS buffer,negligible
